Test results: patent publication US5135937A, “Cycloalkylene azoles and pharmaceutical preparations obtained therefrom” (Schering Aktiengesellschaft, priority 1989, dated 1992)
Values joined by “and” are separate entries in the source; they are usually repeats but may differ in a detail not shown here. Equal values may be shown once. Where a name gives a salt, the structure may show the parent alone. Read-outs that look alike come from different tables or passages of the source.

Experiments:
[1] = test system: Androstenedione-Induced Uterus Growth; assay: Influence on androstenedione-induced uterus growth in infantile rats (Test b); type: in vivo, rat; details: 3 days; for Uterus Weight: infantile female rats; for Inhibition in % (of uterus growth, based on the androstenedione group): vehicle basic value deducted
Method: (§1) The following compounds are examined as representative:
Influence on Androstenedione-Induced Uterus Growth in Infantile Rats
Infantile female rats receive once daily the compound to be tested in combination with androstenedione over a period of three days. One group receives only androstenedione, and a further group only the vehicle. One day after the last treatment, the animals are sacrificed by decapitation and exsanguination, and the fresh uterus weights (without content) are determined. The uterus weights are calculated for mg/100 g body weight. The average value and standard deviation are calculated for each group. Variance analysis is used to check the significances of the differences with respect to the control group (androstenedione group and, respectively, vehicle group). Furthermore, the percentage inhibition of uterus growth is determined, based on the androstenedione group. In this determination, the uterus weight of the vehicle group (basic value) is deducted from the corresponding weight of the androstenedione group. The individual dosage groups, after subtracting the basic value, are based on the thus-obtained value.

aromatase = target: T1, aromatase (Homo sapiens, UniProt P11511); assay: Aromatase inhibition in human placenta (Test a): microsomes, release of 3H2O from [1β-3H]-androstenedione, Ki by Dixon plot; type: biochemical
T1 construct: microsomes obtained from human placenta; from tissue; host or cells: human placenta (microsomes)
T1 sequence (P11511 1-503): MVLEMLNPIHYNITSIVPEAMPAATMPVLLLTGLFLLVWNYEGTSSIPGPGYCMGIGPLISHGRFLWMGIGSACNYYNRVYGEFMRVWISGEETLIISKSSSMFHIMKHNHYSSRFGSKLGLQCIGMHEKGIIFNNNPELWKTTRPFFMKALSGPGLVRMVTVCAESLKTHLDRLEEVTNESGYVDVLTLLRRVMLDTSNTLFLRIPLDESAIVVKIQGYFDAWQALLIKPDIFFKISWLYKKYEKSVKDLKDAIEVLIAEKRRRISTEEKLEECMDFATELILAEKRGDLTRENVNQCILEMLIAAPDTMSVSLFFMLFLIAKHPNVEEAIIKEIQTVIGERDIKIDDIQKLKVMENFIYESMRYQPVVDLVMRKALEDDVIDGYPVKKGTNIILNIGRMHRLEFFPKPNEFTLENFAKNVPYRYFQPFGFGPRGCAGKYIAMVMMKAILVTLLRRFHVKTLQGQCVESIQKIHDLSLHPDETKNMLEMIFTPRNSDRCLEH
Method: as §1
Aromatase Inhibition in Human Placenta
The abilities of the compounds of inhibiting the enzyme system of aromatase is tested on microsomes obtained from human placenta.

[2] = compound + AD, 0.2 + 30 mg/kg/day, hydrochloride, 30 mg/kg/day
[3] = compound + AD, 2.0 + 30 mg/kg/day
[4] = human placenta microsomes, [1β-3H]-androstenedione substrate, 4-OH-androstenedione as reference compound, read-out: Ki, Aromatase
[5] = compound + AD, 0.2 + 30 mg/kg/day

Compound	Uterus Weight [1, 3] [mg/100 g BW]	Inhibition in % (of uterus growth, based on the androstenedione group) [1, 3] [%]	Ki (aromatase; [4]) [µM]	also measured
N#Cc1ccc(C2CCCc3cncn32)cc1 (racemic) [D, 5-(p-cyanophenyl)-5,6,7,8tetrahydroimidazo[-1,5a]pyridine, hydrochloride, reference compound]				Uterus Weight [1, 2]: 69.9 ± 6.6 mg/100 g BW and 83.2 ± 6.9 mg/100 g BW; Inhibition in % (of uterus growth, based on the androstenedione group) [1, 2]: 84% and 86%
C[C@]12CCC(=O)C(O)=C1CC[C@@H]1[C@@H]2CC[C@]2(C)C(=O)CC[C@@H]12 [4-OH-Androstenedione, reference compound]				Ki (aromatase; Ki, Aromatase): 0.062 µM and 0.041 µM
C[C@]12CCC(=O)C=C1CC[C@@H]1[C@@H]2CC[C@]2(C)C(=O)CC[C@@H]12 [Androstenedione, reference compound]				Uterus Weight ([1]; androstenedione (AD) alone 30 mg/kg/day): 213.6 ± 32.4 mg/100 g BW and 183.5 ± 22.7 mg/100 g BW
N#Cc1ccc(C(=C2CCCC2)n2ccnc2)cc1 [C, 4-[1-Cyclopentylidene-1-(1-imidazolyl)methyl]benzonitrile]	69.2 ± 5.7	85		
Cl.N#Cc1ccc(C(=C2CCCCC2)n2ccnc2)cc1 [Compound A, 4-[1-Cyclohexylidene-1-(1-imidazolyl)methyl]benzonitrile, hydrochloride]	100.1 ± 18.8	74	0.00019	Uterus Weight [1, 5]: 108.2 ± 11.9 mg/100 g BW; Inhibition in % (of uterus growth, based on the androstenedione group) [1, 5]: 69%
N#Cc1ccc(C(=C2CCCCC2)n2ccnc2)cc1 [Compound B, 4-[1-Cyclohexylidene-1-(1-imidazolyl)methyl]benzonitrile]	72.5 ± 10.3	82	0.00048	
